# Measured values from patent publication US8758816B2, “Compositions comprising azelastine and methods of use thereof” (priority 2004, dated 2014).
# Counter-ions that a name gives are not always drawn.
# Test system: patients with seasonal allergic rhinitis (SAR)
# Test: MP 428 two-week randomized double-blind study: Total Nasal Symptom Score (TNSS), change from baseline
# Format: in vivo, human
# Parameters: key to Change from Baseline in AM TNSS, Mean / Change from Baseline in AM TNSS, LS Mean / Change from Baseline in AM TNSS, Median: TNSS sum of 4 symptoms each 0-3 (0=none, 3=severe); change from baseline
# Method: A two-week, randomized, double-blind study, which evaluated the effects of the co-administration of ASTELIN® (azelastine hydrochloride (HCl)) and FLONASE® (fluticasone propionate) compared to either product alone in patients with seasonal allergic rhinitis (SAR) was conducted during the 2006 Texas mountain cedar season. After a 5-day placebo lead-in period, 151 patients with moderate-to-severe allergic rhinitis symptoms were randomized to either: (1) (49 total patients) ASTELIN® (azelastine hydrochloride (HCl)) plus placebo saline nasal spray 2 sprays per nostril, 15 minutes apart, twice daily (AM & PM); (2) (50 total patients) FLONASE® (fluticasone propionate) plus placebo saline nasal spray, 2 sprays per nostril, 15 minutes apart, once daily (AM) and two sessions of placebo saline nasal spray, 2 sprays per nostril, 15 minutes apart (PM); or (3) (52 total patients) the co-administration of ASTELIN® (azelastine hydrochloride (HCl)) 2 sprays per nostril plus FLONASE® (fluticasone propionate) 2 sprays per nostril (AM), 15 minutes apart, and ASTELIN® (azelastine hydrochloride (HCl)) 2 sprays per nostril plus placebo saline nasal spray, 15 minutes apart, (PM) for a 2-week double-blind treatment period.
# The primary efficacy variable was the change from baseline in the Total Nasal Symptom Score (TNSS), which comprised sneezing, itchy nose, runny nose, and nasal congestion (individual symptoms scores were assigned a value between 0 and 3, where 0=no symptoms and 3=severe symptoms). This study was not statistically designed to assess the differences between ASTELIN® and FLONASE®.
# [1] = Day 2, Intent-to-Treat Population
# [2] = Day 3, Intent-to-Treat Population
# [3] = Day 4, Intent-to-Treat Population
# [4] = Day 5, Intent-to-Treat Population
structure (smiles),measurement,setting,value
"CN1CCCC(n2nc(Cc3ccc(Cl)cc3)c3ccccc3c2=O)CC1 (racemic) [Azelastine, (±)-1-(2H)-phthalazinone, 4-[(4-chlorophenyl)methyl]-2-(hexahydro-1-methyl-1H-azepin-4-yl)-, mono-hydrochloride]",Primary Reason for Discontinuation From Study: Treatment Failure,All Randomized Patients,0 (0.0) N (%)
same,"Change from Baseline in AM TNSS, LS Mean",[1],−1.46
same,"Change from Baseline in AM TNSS, Mean",[1],−1.48
same,"Change from Baseline in AM TNSS, Median",[1],−1.25
same,"Change from Baseline in AM and PM Combined TNSS, Mean",[1],−3.23
same,"Change from Baseline in AM and PM Combined TNSS, Median",[1],−2.67
same,"Change from Baseline in PM TNSS, LS Mean",[1],−1.65
same,"Change from Baseline in PM TNSS, Mean",[1],−1.76
same,"Change from Baseline in PM TNSS, Median",[1],−1.00
same,"Percent Change from Baseline in AM TNSS, LS Mean",[1],−15.45%
same,"Percent Change from Baseline in AM TNSS, Mean",[1],−15.79%
same,"Percent Change from Baseline in AM TNSS, Median",[1],−14.29%
same,"Percent Change from Baseline in AM and PM Combined TNSS, LS Mean",[1],−16.31%
same,"Percent Change from Baseline in AM and PM Combined TNSS, Mean",[1],−16.93%
same,"Percent Change from Baseline in AM and PM Combined TNSS, Median",[1],−12.31%
same,"Percent Change from Baseline in PM TNSS, LS Mean",[1],−17.15%
same,"Percent Change from Baseline in PM TNSS, Mean",[1],−17.76%
same,"Percent Change from Baseline in PM TNSS, Median",[1],−10.00%
same,"Change from Baseline in AM and PM Combined TNSS, LS Mean","Day 2, Intent-to-Treat Population, ANCOVA model",−3.10
same,"Change from Baseline in AM and PM Combined TNSS, LS Mean","Day 2, Per-Protocol Population",−3.08
same,"Change from Baseline in AM and PM Combined TNSS, Mean","Day 2, Per-Protocol Population",−3.23
same,"Change from Baseline in AM and PM Combined TNSS, Median","Day 2, Per-Protocol Population",−2.67
same,"Percent Change from Baseline in AM and PM Combined TNSS, LS Mean","Day 2, Per-Protocol Population",−16.25%
same,"Percent Change from Baseline in AM and PM Combined TNSS, Mean","Day 2, Per-Protocol Population",−16.93%
same,"Percent Change from Baseline in AM and PM Combined TNSS, Median","Day 2, Per-Protocol Population",−12.31%
same,"Change from Baseline in AM TNSS, LS Mean",[2],−1.28
same,"Change from Baseline in AM TNSS, Mean",[2],−1.29
same,"Change from Baseline in AM TNSS, Median",[2],−0.80
same,"Change from Baseline in AM and PM Combined TNSS, Mean",[2],−3.28
same,"Change from Baseline in AM and PM Combined TNSS, Median",[2],−1.67
same,"Change from Baseline in PM TNSS, LS Mean",[2],−1.91
same,"Change from Baseline in PM TNSS, Mean",[2],−1.98
same,"Change from Baseline in PM TNSS, Median",[2],−1.50
same,"Percent Change from Baseline in AM TNSS, LS Mean",[2],−13.37%
same,"Percent Change from Baseline in AM TNSS, Mean",[2],−13.75%
same,"Percent Change from Baseline in AM TNSS, Median",[2],−7.89%
same,"Percent Change from Baseline in AM and PM Combined TNSS, LS Mean",[2],−16.85%
same,"Percent Change from Baseline in AM and PM Combined TNSS, Mean",[2],−17.08%
same,"Percent Change from Baseline in AM and PM Combined TNSS, Median",[2],−8.11%
same,"Percent Change from Baseline in PM TNSS, LS Mean",[2],−19.66%
same,"Percent Change from Baseline in PM TNSS, Mean",[2],−20.01%
same,"Percent Change from Baseline in PM TNSS, Median",[2],−15.15%
same,"Change from Baseline in AM and PM Combined TNSS, LS Mean","Day 3, Intent-to-Treat Population, ANCOVA model",−3.21
same,"Change from Baseline in AM and PM Combined TNSS, LS Mean","Day 3, Per-Protocol Population",−3.19
same,"Change from Baseline in AM and PM Combined TNSS, Mean","Day 3, Per-Protocol Population",−3.28
same,"Change from Baseline in AM and PM Combined TNSS, Median","Day 3, Per-Protocol Population",−1.67
same,"Percent Change from Baseline in AM and PM Combined TNSS, LS Mean","Day 3, Per-Protocol Population",−16.85%
same,"Percent Change from Baseline in AM and PM Combined TNSS, Mean","Day 3, Per-Protocol Population",−17.08%
same,"Percent Change from Baseline in AM and PM Combined TNSS, Median","Day 3, Per-Protocol Population",−8.11%
same,"Change from Baseline in AM TNSS, LS Mean",[3],−1.79
same,"Change from Baseline in AM TNSS, Mean",[3],−1.76
same,"Change from Baseline in AM TNSS, Median",[3],−1.33
same,"Change from Baseline in AM and PM Combined TNSS, Mean",[3],−3.93
same,"Change from Baseline in AM and PM Combined TNSS, Median",[3],−2.92
same,"Change from Baseline in PM TNSS, LS Mean",[3],−2.09
same,"Change from Baseline in PM TNSS, Mean",[3],−2.17
same,"Change from Baseline in PM TNSS, Median",[3],−2.20
same,"Percent Change from Baseline in AM TNSS, LS Mean",[3],−18.88%
same,"Percent Change from Baseline in AM TNSS, Mean",[3],−18.84%
same,"Percent Change from Baseline in AM TNSS, Median",[3],−14.89%
same,"Percent Change from Baseline in AM and PM Combined TNSS, LS Mean",[3],−20.41%
same,"Percent Change from Baseline in AM and PM Combined TNSS, Mean",[3],−20.50%
same,"Percent Change from Baseline in AM and PM Combined TNSS, Median",[3],−14.29%
same,"Percent Change from Baseline in PM TNSS, LS Mean",[3],−21.42%
same,"Percent Change from Baseline in PM TNSS, Mean",[3],−21.99%
same,"Percent Change from Baseline in PM TNSS, Median",[3],−23.08%
same,"Change from Baseline in AM and PM Combined TNSS, LS Mean","Day 4, Intent-to-Treat Population, ANCOVA model",−3.89
same,"Change from Baseline in AM and PM Combined TNSS, LS Mean","Day 4, Per-Protocol Population",−3.87
same,"Change from Baseline in AM and PM Combined TNSS, Mean","Day 4, Per-Protocol Population",−3.93
same,"Change from Baseline in AM and PM Combined TNSS, Median","Day 4, Per-Protocol Population",−2.92
same,"Percent Change from Baseline in AM and PM Combined TNSS, LS Mean","Day 4, Per-Protocol Population",−20.39%
same,"Percent Change from Baseline in AM and PM Combined TNSS, Mean","Day 4, Per-Protocol Population",−20.50%
same,"Percent Change from Baseline in AM and PM Combined TNSS, Median","Day 4, Per-Protocol Population",−14.29%
same,"Change from Baseline in AM TNSS, LS Mean",[4],−2.25
same,"Change from Baseline in AM TNSS, Mean",[4],−2.23
same,"Change from Baseline in AM TNSS, Median",[4],−1.67
same,"Change from Baseline in AM and PM Combined TNSS, Mean",[4],−4.48
same,"Change from Baseline in AM and PM Combined TNSS, Median",[4],−3.67
same,"Change from Baseline in PM TNSS, LS Mean",[4],−2.19
same,"Change from Baseline in PM TNSS, Mean",[4],−2.25
same,"Change from Baseline in PM TNSS, Median",[4],−1.20
same,"Percent Change from Baseline in AM TNSS, LS Mean",[4],−23.57%
same,"Percent Change from Baseline in AM TNSS, Mean",[4],−23.62%
same,"Percent Change from Baseline in AM TNSS, Median",[4],−15.79%
same,"Percent Change from Baseline in AM and PM Combined TNSS, LS Mean",[4],−23.20%
